Patent US6737397B1, “Control of cancer growth through the interaction of [MET5]-enkephalin and the zeta receptor” (The Penn State Research Foundation, priority 1996, dated 2004)
Like-named read-outs stand apart in the source and are kept apart here. No end group written: not given here.

Assays:
[1] = target: T1, ζ-opioid receptor (Homo sapiens, UniProt Q9NZT2); assay: Competition for binding of [3H][Met5]enkephalin (4.0 nM) in nuclear homogenates of HT-29 human colon tumors; set-up: from tissue; host or cells: HT-29 human colon tumor xenografts grown in athymic nude mice; nuclear (P1) and other subcellular fractions
T1 sequence (Q9NZT2 1-677): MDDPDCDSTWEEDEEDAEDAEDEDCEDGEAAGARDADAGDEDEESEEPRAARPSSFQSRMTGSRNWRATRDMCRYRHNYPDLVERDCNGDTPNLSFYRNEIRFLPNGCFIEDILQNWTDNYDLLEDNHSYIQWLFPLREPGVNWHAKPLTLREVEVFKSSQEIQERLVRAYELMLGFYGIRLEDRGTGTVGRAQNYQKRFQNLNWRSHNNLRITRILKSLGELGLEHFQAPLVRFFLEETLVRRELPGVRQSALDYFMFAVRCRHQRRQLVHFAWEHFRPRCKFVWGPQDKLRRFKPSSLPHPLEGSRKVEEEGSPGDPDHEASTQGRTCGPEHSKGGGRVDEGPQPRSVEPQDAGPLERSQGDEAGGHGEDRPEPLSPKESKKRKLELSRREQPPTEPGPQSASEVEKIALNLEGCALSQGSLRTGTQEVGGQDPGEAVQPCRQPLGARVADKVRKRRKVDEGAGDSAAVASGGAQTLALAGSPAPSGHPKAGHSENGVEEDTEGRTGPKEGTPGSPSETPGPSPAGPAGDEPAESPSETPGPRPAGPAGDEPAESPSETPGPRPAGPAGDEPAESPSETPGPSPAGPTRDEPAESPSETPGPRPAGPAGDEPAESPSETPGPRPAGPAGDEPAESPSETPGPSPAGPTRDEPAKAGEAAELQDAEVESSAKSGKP

[2] = tested on: HT-29 cells; assay: Growth assay (cell counts) of HT-29 human colon cancer cells in culture; assay type: cell-based; conditions: 48 hr
Experimental: In some examples, cultures of HT-29 cells were maintained in McCoy's 5A media without fetal calf serum.
(§1) Cells were seeded at equivalent amounts into 75 cm^2 flasks or into 9.6 cm^2 wells (6-well plates, Falcon) and were counted 24 hr later to determine plating efficiency. Drugs or sterile water were added beginning 24 hr after seeding (=0 hours) and both media and drugs were changed daily. All drugs were prepared in sterile water and dilutions represent final concentrations of the compounds. At appropriate times, cells were harvested with 0.05% trypsin/0.53 mM EDTA, centrifuged, and counted with a hemacytometer at 200×. Cell viability was determined by trypan blue staining. At least 2 aliquots/flask or well were counted and 2 flasks or wells/time point/treatment group were sampled.

[3] = tested on: WiDr cells; assay: Growth assay (cell counts) of WiDr human colon cancer cells; assay type: cell-based
Experimental: (§2) HT-29, WiDr, and COLO 205 cell lines were obtained from the American Type Culture Collection (Rockville, Md.). HT-29 cells were grown in McCoy's 5A media (modified), WiDr cells in Minimum Essential Media, and COLO 205 cells in RPMI 1640 media; all media contained 10% fetal calf serum, 2 mM […], 1.2% sodium bicarbonate and antibiotics (11 Units/ml penicillin, 10 μg/ml streptomycin, 10 μg/ml neomycin) in a humidified atmosphere of 7% CO2/93% air at 37° C. In some examples, cultures of HT-29 cells were maintained in McCoy's 5A media without fetal calf serum.
as §1
(§3) To examine the ubiquity of opioid activity with respect to colon cancer, two other colon cancer cell lines were investigated: COLO 205 and WiDr.

[4] = tested on: COLO 205 cells; assay: Growth assay (cell counts) of COLO 205 human colon cancer cells; assay type: cell-based
Experimental: as §2, §1, §3

[5] = tested on: HT-29 human colon cancer cells; assay: HT-29 human colon cancer xenografts in nude mice treated with OGF and/or naloxone

CSCC[C@H](NC(=O)[C@H](Cc1c[nH]c2ccccc12)NC(=O)CNC(=O)[C@H](Cc1ccc(O)cc1)NC(=O)[C@H](C)NC(=O)[C@H](CCC(=O)O)NC(=O)[C@H](CCC(=O)O)NC(=O)[C@H](CCC(=O)O)NC(=O)[C@H](CCC(=O)O)NC(=O)[C@H](CCC(=O)O)NC(=O)[C@H](CC(C)C)NC(=O)[C@H](Cc1c[nH]c2ccccc12)NC(=O)[C@@H]1CCCN1C(=O)CNC(=O)[C@@H]1CCC(=O)N1)C(=O)N[C@@H](CC(=O)O)C(=O)N[C@@H](Cc1ccccc1)C(N)=O [Gastrin]
IC50 [1]: 0.0775 ± 0.0075 µM | Ki [1]: 0.0596 ± 0.0058 µM

YGGFMRGL [[Met^5]enkephalin-Arg^6-Gly^7-Leu^8, [Met^5,Arg^6,Gly^7,Leu^8]-enkephalin]
IC50 [1]: 0.0375 ± 0.0075 µM | Ki [1]: 0.0289 ± 0.0058 µM

C=CCN1CC[C@]23c4c5ccc(O)c4O[C@H]2C(=O)CC[C@@]3(O)[C@H]1C5 [naloxone]
effect of concomitant naloxone on [Met5]-enkephalin inhibition of cell number ([2]; 10^−6 M each): blocked the inhibitory effects | effect on cell growth, alone ([2]; 10^−6 M): no effect on cell growth | influence on growth, alone ([3]; 10^−6 M): no influence on growth | effect of naloxone on suppressive effects of [Met5]-enkephalin on growth ([3]; 10^−6 M each): eliminated | influence on growth, alone ([4]; 10^−6 M): no influence on growth | effect of naloxone on suppressive effects of [Met5]-enkephalin on growth ([4]; 10^−6 M each): eliminated | latencies of palpable, visible, or measurable tumors or incidence of cancer versus control mice ([5]; 5 mg/kg OGF with 10 mg/kg naloxone, or 10 mg/kg naloxone alone): No differences | Latency for measurable tumor appearance, days, range ([5]; 10 mg/kg Nal daily): (10-16) days | Latency for palpable tumor ([5]; 10 mg/kg Nal daily): 9.3 ± 1.4 days | Latency for visible tumor ([5]; 10 mg/kg Nal daily): 10.3 ± 1.4 days | No. of mice with tumors 21 days after inoculation ([5]; 10 mg/kg Nal daily): 4/5 | No. of mice with tumors 50 days after inoculation ([5]; 10 mg/kg Nal daily): 4/5 | tumor volume ([5]; 50 days after inoculation, 10 mg/kg naloxone alone): 1,494±517 mm^3

CC[C@H](C)[C@H](NC(=O)[C@H](C)NC(=O)[C@H](CC(N)=O)NC(=O)[C@H](CCCCN)NC(=O)[C@H](Cc1ccccc1)NC(=O)[C@H](CC(C)C)NC(=O)[C@@H](NC(=O)[C@@H](NC(=O)[C@H](CC(C)C)NC(=O)[C@@H]1CCCN1C(=O)[C@@H](NC(=O)[C@H](CCC(N)=O)NC(=O)[C@H](CO)NC(=O)[C@H](CCCCN)NC(=O)[C@H](CCC(=O)O)NC(=O)[C@H](CO)NC(=O)[C@@H](NC(=O)[C@H](CCSC)NC(=O)[C@H](Cc1ccccc1)NC(=O)CNC(=O)CNC(=O)[C@@H](N)Cc1ccc(O)cc1)[C@@H](C)O)[C@@H](C)O)C(C)C)[C@@H](C)O)C(=O)N[C@H](C(=O)N[C@@H](CCCCN)C(=O)N[C@@H](CC(N)=O)C(=O)N[C@@H](C)C(=O)N[C@@H](Cc1ccc(O)cc1)C(=O)N[C@@H](CCCCN)C(=O)N[C@@H](CCCCN)C(=O)NCC(=O)N[C@@H](CCC(=O)O)C(=O)O)[C@@H](C)CC [β-Endorphin, β-endorphin]
less potent than [Met5]-enkephalin in displacing radiolabeled [Met5]-enkephalin binding [1]: 4.3 fold

CC[C@]12CCN(CC3CC3)[C@H](C(=O)c3ccc(O)cc31)[C@@H]2C [EKC, ethylketocyclazocine]
IC50 [1]: > 10000 µM | Ki [1]: > 10000 µM | ability to compete in displacing [3H]-[Met5]-enkephalin binding [1]: not competitive

CSCC[C@H](NC(=O)[C@H](Cc1ccc(OS(=O)(=O)O)cc1)NC(=O)[C@@H](N)CC(=O)O)C(=O)NCC(=O)N[C@@H](Cc1c[nH]c2ccccc12)C(=O)N[C@@H](CCSC)C(=O)N[C@@H](CC(=O)O)C(=O)N[C@@H](Cc1ccccc1)C(N)=O [CCK-8, cholecystokinin octapeptide]
ability to compete in displacing [3H]-[Met5]-enkephalin binding [1]: exhibit ability to compete

C[C@H](N)C(=O)NCC(=O)N[C@H]1CSSC[C@@H](C(=O)O)NC(=O)[C@H](CO)NC(=O)[C@H]([C@@H](C)O)NC(=O)[C@H](Cc2ccccc2)NC(=O)[C@H]([C@@H](C)O)NC(=O)[C@H](CCCCN)NC(=O)[C@H](Cc2c[nH]c3ccccc23)NC(=O)[C@H](Cc2ccccc2)NC(=O)[C@H](Cc2ccccc2)NC(=O)[C@H](CC(N)=O)NC(=O)[C@H](CCCCN)NC1=O [Somatostatin]
IC50 [1]: > 10 µM | Ki [1]: > 10 µM

SKF-10,047
ability to compete in displacing [3H]-[Met5]-enkephalin binding [1]: not competitive | IC50 ([1]; read-out: IC50): 0.795 ± 0.005 µM | Ki ([1]; read-out: KI): 0.612 ± 0.004 µM

dynorphin A 1-8 [Dynorphin A-(1-8)]
ability to compete in displacing [3H]-[Met5]-enkephalin binding [1]: not competitive
